Results from patent US9458181B2, “Cathepsin cysteine protease inhibitors” (Merck Sharp & Dohme Corp., priority 2013, dated 2016).

Tests used:
human cathepsin F = biological target: T1, human cathepsin F (Homo sapiens, UniProt Q9UBX1); assay: Cathepsin F assay (hCat F); format: biochemical; settings: human cathepsin F 10 nM, Z-Phe-Arg-AMC 8 μM, pH 5.5, 15 min preincubation; read-out: hCat F IP
T1 sequence (Q9UBX1 271-484): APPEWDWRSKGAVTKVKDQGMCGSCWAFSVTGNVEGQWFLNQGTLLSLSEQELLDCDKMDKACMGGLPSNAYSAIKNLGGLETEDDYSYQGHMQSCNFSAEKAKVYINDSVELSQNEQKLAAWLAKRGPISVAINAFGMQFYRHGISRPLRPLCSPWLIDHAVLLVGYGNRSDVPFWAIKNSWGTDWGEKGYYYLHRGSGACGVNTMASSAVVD
In short: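 Fluorogenic read-out: cleavage of Z-Phe-Arg-AMC (8 μM in added buffer) was followed at Ex 360/Em 460 nm for 20 min, with dose-response fitting of percent inhibition. Before substrate addition, 10 nM human enzyme was incubated 15 min at room temperature with compounds (DMSO stocks 500–0.025 μM) in pH 5.5 MES/EDTA/DTT buffer containing 10% DMSO.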

human cathepsin K = human cathepsin K (UniProt P43236); assay: Cathepsin K Assay (hrbCat K); format: biochemical; settings: human cathepsin K 0.4 nM, Z-Leu-Arg-AMC 8 μM, pH 5.5, 15 min preincubation; read-out: hrbCat K IP
In short: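 Human cathepsin K (0.4 nM) in pH 5.5 MES buffer with EDTA, DTT and 10% DMSO was preincubated 15 min at room temperature with compound from a ⅓ dilution series (500-0.025 μM DMSO stocks). Z-Leu-Arg-AMC (8 μM) was then added, and AMC release was followed fluorometrically (Ex 360/Em 460 nm) for 30 min; inhibition was fitted to a dose-response model.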

IC50 (human cathepsin F): 2330 nM | IC50 (human cathepsin K): 289 nM
SMILES: CC(C)(C)[C@@H](C#N)NC(=O)[C@@H]1CCCC[C@H]1c1oc(-c2ccc(F)cc2)nc1-c1ccc(N2CCS(=O)(=O)CC2)cc1 [Example 157, (1R,2R)-N-((S)-1-cyano-2,2-dimethylpropyl)-2-(4-(4-(1,1-dioxidothiomorpholino)phenyl)-2-(4-fluorophenyl)oxazol-5-yl)cyclohexanecarboxamide]
